# Assay results from patent US12559529B2, “NPY2 receptor agonists” (Boehringer Ingelheim International GmbH, priority 2019, dated 2026).
# Target: T1, Human Neuropeptide Y2 Receptor (Homo sapiens, UniProt P49146)
# T1 construct: purchased CHEMICON HTS066M
# T1 sequence (P49146 1-381): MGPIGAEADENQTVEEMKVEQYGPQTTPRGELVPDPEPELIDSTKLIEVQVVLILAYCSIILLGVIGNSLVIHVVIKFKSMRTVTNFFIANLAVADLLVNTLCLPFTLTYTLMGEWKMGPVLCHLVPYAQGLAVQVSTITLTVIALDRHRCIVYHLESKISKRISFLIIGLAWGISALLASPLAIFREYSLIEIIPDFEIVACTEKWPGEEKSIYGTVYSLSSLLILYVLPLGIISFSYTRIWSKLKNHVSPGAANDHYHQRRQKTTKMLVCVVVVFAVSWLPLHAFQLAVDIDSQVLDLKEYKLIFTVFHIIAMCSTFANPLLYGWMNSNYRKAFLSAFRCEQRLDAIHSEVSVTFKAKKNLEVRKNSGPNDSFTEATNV
# Test: Radioligand binding competition assay (RLB)
# Conditions: Table 3; human 125I-PYY (1-36) 0.02 nM, Y2 receptor membranes; read-out: Ki
# In short: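 Peptide dilutions made in pH 7.4 HEPES assay buffer with 0.2% ovalbumin; human Y2 receptor membranes added at 0.5 μg protein/well; plates shaken 2 h at room temperature; reaction stopped by vacuum filtration onto PEI-treated GF/C filters with ice-cold high-salt washes; radioactivity counted by scintillation.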
row,SMILES,Ki
1,"CC[C@H](C)[C@H](NC(=O)[C@H](CCC(=O)O)NC(=O)[C@H](C)NC(=O)[C@@H]1CCCN1C(=O)[C@H](CO)NC(=O)[C@H](C)NC(=O)[C@H](CC(=O)O)NC(=O)[C@H](CCC(=O)O)NC(=O)[C@H](CCC(=O)O)NC(=O)[C@@H]1CCCN1C(=O)[C@H](CCCCNC(=O)COCCOCCNC(=O)COCCOCCNC(=O)CC[C@H](NC(=O)CCCCCCCCCCCCCCCCC(=O)O)C(=O)O)NC(=O)[C@H](CCC(=O)O)NC(=O)[C@@H]1CCCN1C(=O)[C@H](C)NC(=O)CC(C)C)C(=O)N[C@@H](CCC(N)=O)C(=O)N[C@@H](CCCNC(=N)N)C(=O)N[C@@H](Cc1ccc(O)cc1)C(=O)N[C@@H](Cc1ccc(O)cc1)C(=O)N[C@H](C(=O)N[C@@H](CO)C(=O)N[C@@H](CC(C)C)C(=O)N[C@@H](CCCNC(=N)N)C(=O)N[C@@H](Cc1c[nH]cn1)C(=O)N[C@@H](Cc1ccc(O)cc1)C(=O)N[C@@H](Cc1ccc(O)cc1)C(=O)N[C@@H](CC(N)=O)C(=O)N[C@@H](Cc1c[nH]c2ccccc12)C(=O)N[C@@H](CC(C)C)C(=O)N[C@H](C(=O)N[C@@H](CCCNC(=N)N)C(=O)N[C@@H](CCC(N)=O)C(=O)N[C@@H](CCCNC(=N)N)C(=O)N[C@@H](Cc1ccc(O)cc1)C(N)=O)[C@@H](C)O)C(C)C [Compound 95, N{alpha-4}-(3-methylbutanoyl)-N{epsilon-7}-[2-(2-{2-[2-(2-{2-[(4S)-4-carboxy-4-(17-carboxyheptadecanamido)butanamido]ethoxy}ethoxy)acetamido]ethoxy}ethoxy)acetamido]-[4A,7K,9E,15A,17I,18Q,22V,28Y,30W,31L]hPYY (4-36)]",0.66 nM
2,"CC(C)CC(=O)N[C@@H](C)C(=O)N1CCC[C@H]1C(=O)N[C@@H](C)C(=O)N[C@@H](CCCCNC(=O)COCCOCCNC(=O)COCCOCCNC(=O)CC[C@H](NC(=O)CCCCCCCCCCCCCCCCC(=O)O)C(=O)O)C(=O)N1CCC[C@H]1C(=O)N1CCC[C@H]1C(=O)N[C@@H](CCC(=O)O)C(=O)N[C@@H](CC(=O)O)C(=O)N[C@@H](C)C(=O)N[C@@H](CO)C(=O)N1CCC[C@H]1C(=O)N[C@@H](CCC(=O)O)C(=O)N[C@@H](CCC(=O)O)C(=O)N[C@@H](CC(C)C)C(=O)N[C@@H](CCC(N)=O)C(=O)N[C@@H](CCCNC(=N)N)C(=O)N[C@@H](Cc1ccc(O)cc1)C(=O)N[C@@H](Cc1ccc(O)cc1)C(=O)N[C@H](C(=O)N[C@@H](CO)C(=O)N[C@@H](CC(C)C)C(=O)N[C@@H](CCCNC(=N)N)C(=O)N[C@@H](Cc1c[nH]cn1)C(=O)N[C@@H](Cc1ccc(O)cc1)C(=O)N[C@@H](Cc1ccc(O)cc1)C(=O)N[C@@H](CC(N)=O)C(=O)N[C@@H](Cc1c[nH]c2ccccc12)C(=O)N[C@@H](CC(C)C)C(=O)N[C@H](C(=O)N[C@@H](CCCNC(=N)N)C(=O)N[C@@H](CCC(N)=O)C(=O)N[C@@H](CCCNC(=N)N)C(=O)N[C@@H](Cc1ccc(O)cc1)C(N)=O)[C@@H](C)O)C(C)C [Compound 100, N{alpha-4}-(3-methylbutanoyl)-N{epsilon-7}-[2-(2-{2-[2-(2-{2-[(4S)-4-carboxy-4-(17-carboxyheptadecanamido)butanamido]ethoxy}ethoxy)acetamido]ethoxy}ethoxy)acetamido]-[4A,6A,7K,9P,18Q,22V,28Y,30W,31L]hPYY (4-36)]",0.44 nM
3,"CC(C)CC(=O)N[C@@H](C)C(=O)N1CCC[C@H]1C(=O)N[C@@H](CCC(=O)O)C(=O)N[C@@H](CCCCNC(=O)COCCOCCNC(=O)COCCOCCNC(=O)CC[C@H](NC(=O)CCCCCCCCCCCCCCCCC(=O)O)C(=O)O)C(=O)N1CCC[C@H]1C(=O)N[C@@H](CCC(=O)O)C(=O)N[C@@H](CCC(=O)O)C(=O)N[C@@H](CC(=O)O)C(=O)N[C@@H](C)C(=O)N[C@@H](CO)C(=O)N1CCC[C@H]1C(=O)N[C@@H](CCC(=O)O)C(=O)N[C@@H](CCC(=O)O)C(=O)N[C@@H](CC(C)C)C(=O)N[C@@H](CCC(N)=O)C(=O)N[C@@H](CCCCN)C(=O)N[C@@H](Cc1ccc(O)cc1)C(=O)N[C@@H](Cc1ccc(O)cc1)C(=O)N[C@H](C(=O)N[C@@H](C)C(=O)N[C@@H](CC(C)C)C(=O)N[C@@H](CCCNC(=N)N)C(=O)N[C@@H](Cc1c[nH]cn1)C(=O)N[C@@H](Cc1ccc(O)cc1)C(=O)N[C@@H](Cc1ccc(O)cc1)C(=O)N[C@@H](CC(N)=O)C(=O)N[C@@H](Cc1c[nH]c2ccccc12)C(=O)N[C@@H](CC(C)C)C(=O)N[C@H](C(=O)N[C@@H](CCCNC(=N)N)C(=O)N[C@@H](CCC(N)=O)C(=O)N[C@@H](CCCNC(=N)N)C(=O)N[C@@H](Cc1ccc(O)cc1)C(N)=O)[C@@H](C)O)C(C)C [Compound 107, N{alpha-4}-(3-methylbutanoyl)-N{epsilon-7}-[2-(2-{2-[2-(2-{2-[(4S)-4-carboxy-4-(17-carboxyheptadecanamido)butanamido]ethoxy}ethoxy)acetamido]ethoxy}ethoxy)acetamido]-[4A,7K,9E,18Q,19K,22V,23A,28Y,30W,31L]hPYY (4-36)]",1.1 nM

# The remaining compounds from weak to strong by Ki, led by results:
row,Ki,SMILES
1,5.43 nM,"CC(C)CC(=O)N[C@@H](C)C(=O)N1CCC[C@H]1C(=O)N[C@@H](CCC(=O)O)C(=O)N[C@@H](CCCCNC(=O)COCCOCCNC(=O)COCCOCCNC(=O)CC[C@H](NC(=O)CCCCCCCCCCCCCCCCC(=O)O)C(=O)O)C(=O)N1CCC[C@H]1C(=O)N[C@@H](CCC(=O)O)C(=O)N[C@@H](CCC(=O)O)C(=O)N[C@@H](CC(=O)O)C(=O)N[C@@H](C)C(=O)N[C@@H](CCC(=O)O)C(=O)N1CCC[C@H]1C(=O)N[C@@H](CCC(=O)O)C(=O)N[C@@H](CCC(=O)O)C(=O)N[C@@H](CC(C)C)C(=O)N[C@@H](CCC(N)=O)C(=O)N[C@@H](CCCNC(=N)N)C(=O)N[C@@H](Cc1ccc(O)cc1)C(=O)N[C@@H](Cc1ccc(O)cc1)C(=O)N[C@H](C(=O)N[C@@H](CCC(=O)O)C(=O)N[C@@H](CC(C)C)C(=O)N[C@@H](CCCNC(=N)N)C(=O)N[C@@H](Cc1c[nH]cn1)C(=O)N[C@@H](Cc1ccc(O)cc1)C(=O)N[C@@H](Cc1ccc(O)cc1)C(=O)N[C@@H](CC(N)=O)C(=O)N[C@@H](Cc1c[nH]c2ccccc12)C(=O)N[C@@H](CC(C)C)C(=O)N[C@H](C(=O)N[C@@H](CCCNC(=N)N)C(=O)N[C@@H](CCC(N)=O)C(=O)N[C@@H](CCCNC(=N)N)C(=O)N[C@@H](Cc1ccc(O)cc1)C(N)=O)[C@@H](C)O)C(C)C [Compound 111, N{alpha-4}-(3-methylbutanoyl)-N{epsilon-7}-[2-(2-{2-[2-(2-{2-[(4S)-4-carboxy-4-(17-carboxyheptadecanamido)butanamido]ethoxy}ethoxy)acetamido]ethoxy}ethoxy)acetamido]-[4A,7K,9E,13E,18Q,22V,23E,28Y,30W,31L]hPYY (4-36)]"
2,0.94 nM,"CC(C)CC(=O)N[C@@H](C)C(=O)N1CCC[C@H]1C(=O)N[C@@H](CCC(=O)O)C(=O)N[C@@H](CCCCNC(=O)COCCOCCNC(=O)COCCOCCNC(=O)CC[C@H](NC(=O)CCCCCCCCCCCCCCCCC(=O)O)C(=O)O)C(=O)N1CCC[C@H]1C(=O)N[C@@H](CCC(=O)O)C(=O)N[C@@H](CCC(=O)O)C(=O)N[C@@H](C)C(=O)N[C@@H](C)C(=O)N[C@@H](CO)C(=O)N1CCC[C@H]1C(=O)N[C@@H](CCC(=O)O)C(=O)N[C@@H](CCC(=O)O)C(=O)N[C@@H](CC(C)C)C(=O)N[C@@H](CCC(N)=O)C(=O)N[C@@H](CCCNC(=N)N)C(=O)N[C@@H](Cc1ccc(O)cc1)C(=O)N[C@@H](Cc1ccc(O)cc1)C(=O)N[C@H](C(=O)N[C@@H](CO)C(=O)N[C@@H](CC(C)C)C(=O)N[C@@H](CCCNC(=N)N)C(=O)N[C@@H](Cc1c[nH]cn1)C(=O)N[C@@H](Cc1ccc(O)cc1)C(=O)N[C@@H](Cc1ccc(O)cc1)C(=O)N[C@@H](CC(N)=O)C(=O)N[C@@H](Cc1c[nH]c2ccccc12)C(=O)N[C@@H](CC(C)C)C(=O)N[C@H](C(=O)N[C@@H](CCCNC(=N)N)C(=O)N[C@@H](CCC(N)=O)C(=O)N[C@@H](CCCNC(=N)N)C(=O)N[C@@H](Cc1ccc(O)cc1)C(N)=O)[C@@H](C)O)C(C)C [Compound 109, N{alpha-4}-(3-methylbutanoyl)-N{epsilon-7}-[2-(2-{2-[2-(2-{2-[(4S)-4-carboxy-4-(17-carboxyheptadecanamido)butanamido]ethoxy}ethoxy)acetamido]ethoxy}ethoxy)acetamido]-[4A,7K,9E,11A,18Q,22V,28Y,30W,31L]hPYY (4-36)]"
3,0.87 nM,"CC(C)CC(=O)N[C@@H](C)C(=O)N1CCC[C@H]1C(=O)N[C@@H](CCC(=O)O)C(=O)N[C@@H](CCCCNC(=O)COCCOCCNC(=O)COCCOCCNC(=O)CC[C@H](NC(=O)CCCCCCCCCCCCCCCCC(=O)O)C(=O)O)C(=O)N1CCC[C@H]1C(=O)N[C@@H](CCC(=O)O)C(=O)N[C@@H](CCC(=O)O)C(=O)N[C@@H](CC(=O)O)C(=O)N[C@@H](C)C(=O)N[C@@H](CO)C(=O)N1CCC[C@H]1C(=O)N[C@@H](CCC(=O)O)C(=O)N[C@@H](CCC(=O)O)C(=O)N[C@@H](CC(C)C)C(=O)N[C@@H](CCC(N)=O)C(=O)N[C@@H](CCCNC(=N)N)C(=O)N[C@@H](Cc1ccc(O)cc1)C(=O)N[C@@H](Cc1ccc(O)cc1)C(=O)N[C@H](C(=O)N[C@H](C(=O)N[C@@H](CC(C)C)C(=O)N[C@@H](CCCNC(=N)N)C(=O)N[C@@H](Cc1c[nH]cn1)C(=O)N[C@@H](Cc1ccc(O)cc1)C(=O)N[C@@H](Cc1ccc(O)cc1)C(=O)N[C@@H](CC(N)=O)C(=O)N[C@@H](Cc1c[nH]c2ccccc12)C(=O)N[C@@H](CC(C)C)C(=O)N[C@H](C(=O)N[C@@H](CCCNC(=N)N)C(=O)N[C@@H](CCC(N)=O)C(=O)N[C@@H](CCCNC(=N)N)C(=O)N[C@@H](Cc1ccc(O)cc1)C(N)=O)[C@@H](C)O)[C@@H](C)O)C(C)C [Compound 102, N{alpha-4}-(3-methylbutanoyl)-N{epsilon-7}-[2-(2-{2-[2-(2-{2-[(4S)-4-carboxy-4-(17-carboxyheptadecanamido)butanamido]ethoxy}ethoxy)acetamido]ethoxy}ethoxy)acetamido]-[4A,7K,9E,18Q,22V,23T,28Y,30W,31L]hPYY (4-36)]"
